Data reported in PMC10667535 (Nature Communications, 2023).

target: T1, RSp0980 (Ralstonia pseudosolanacearum, UniProt Q8XR79); test: biochemical
T1 construct: gene narL
T1 sequence (Q8XR79 1-222): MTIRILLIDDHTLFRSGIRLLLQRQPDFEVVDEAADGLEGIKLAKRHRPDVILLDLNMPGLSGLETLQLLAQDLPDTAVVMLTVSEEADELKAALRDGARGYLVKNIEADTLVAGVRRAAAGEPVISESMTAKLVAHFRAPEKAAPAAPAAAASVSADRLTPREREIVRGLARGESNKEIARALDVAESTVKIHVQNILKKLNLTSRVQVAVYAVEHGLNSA

| Structure (SMILES) | Kd |
| --- | --- |
| Nc1nc2c(ncn2[C@@H]2O[C@@H]3COP(=O)(O)O[C@@H]4[C@H](O)[C@@H](COP(=O)(O)O[C@H]3[C@H]2O)O[C@H]4n2cnc3c(=O)[nH]c(N)nc32)c(=O)[nH]1 [2′,3′-c-di-GMP] | 126 ± 1.12 µM |
| Nc1ncnc2c1ncn2[C@@H]1O[C@H](CO)[C@H]2OP(=O)(O)O[C@H]21 [2′,3′-cAMP] | 82 ± 0.93 µM |
| Nc1nc2c(ncn2[C@@H]2O[C@@H]3CO[P@](=O)(O)O[C@H]4[C@@H](O)[C@H](n5cnc6c(=O)[nH]c(N)nc65)O[C@@H]4CO[P@](=O)(O)O[C@H]3[C@H]2O)c(=O)[nH]1 [bis-3′,5′-c-di-GMP] | 130.4 ± 1.3 µM |
